{"source": "patent US10023615B2", "about": "“Efficient transport into white blood cells” (priority 2008, dated 2018)", "key": {"liver, Kupffer cells": {"test_system": "liver, Kupffer cells", "experiment": "Immunostaining against XG-102 in the liver after i.v. injection", "type": "in vivo, rat", "conditions": "1 mg/kg i.v., 24 hours", "excerpt": "Revelation was done using DAB substrate."}, "db/db mice": {"test_system": "db/db mice", "experiment": "db/db mice model of type 2 diabetes, chronic treatment", "type": "in vivo, mouse", "excerpt": "The aim was to determine the activity of IB(s) peptides and all-D retro-inverso IB(s) peptides and variants thereof in the treatment of Diabetes Type 2, particularly to determine the effect of chronic treatment with XG-102 (SEQ ID NO: 233) in the db/db mice model of type 2 diabetes by evaluating fasting blood glucose levels every third day (28 days)\n(§1) a) Materials and Methods • i) Animals • A total of twenty (20) male db/db mice (8 weeks old) were obtained from Charles River (Germany). Upon arrival, animals were group housed (n=6-7/group) and offered regular rodent chow (Altromin standard #1324 chow; C. Petersen, Ringsted, Denmark) and water ad libitum unless otherwise stated. • The mice were housed under a 12:12 L/D cycle (lights on at 4:00 and lights off at 16:00) and in temperature and humidity controlled rooms. • ii) Groups and Randomization • On day −4, mice were randomized according to blood glucose level (fasted; blood glucose measured on Biosen S line analyzer (EKF diagnostic, Germany) to participate in one of the following drug treatment groups (n=6): • 1) Vehicle control, S.C. (physiological saline) • 2) XG-102 (SEQ ID NO: 233); 1 mg/kg; s.c. • 3) XG-102 (SEQ ID NO: 233); 10 mg/kg; s.c • All doses listed were calculated for the free-base. Drug purity: 95.28%, peptide content: 78.0%. All compounds were administered sub-cutaneously (s.c.) in a volume of 3 ml/kg. The formulation instructions for vehicle control and XG-102 (SEQ ID NO: 233) were as follows: • First, XG-102 (SEQ ID NO: 233) was dissolved in the vehicle. The formulations (concentrations of 0.33 and 3.3 mg/ml, corresponding to the doses of 1 and 10 mg/kg, respectively) were prepared according to the procedure detailed below. Concentrations were calculated and expressed taking into account test items purity and peptide content (multiplier coefficient was 1.346). • Preparation of a stock solution: the freeze-dried test compound XG-102 (SEQ ID NO: 233) is thawed for one hour minimum and prepared as a stock solution in the vehicle at 1 mM (corresponding to 3.823 mg/mL). Aliquots are prepared for each treatment day and stored at approximately −80° C. Dilutions of this stock solution to the required concentrations are performed on each treatment day; • Storage of the stock solution: at approximately −80° C.; • Storage of the diluted preparations: at room temperature for 24 hours maximum. • Prior to solubilisation, the powder was stored at −20° C. The stability of the stock solution is 3 months at approximately −80° C.; the stability of the diluted formulations for animal dosing is 24 hours at room temperature. Unused diluted material could be stored for up to 7 days if kept at 4-8° C.\nc) Experimental Procedure • Following 8 days of acclimatization the mice were treated daily at 08.00 AM for 21 days by SC dosing 8 hours prior to lights out at 04.00 PM according to the outline groups. […] Mice were stratified into two sub-teams of n=6-7 and subsequently the metabolic characterisation were performed on study days 71-72. • iii) Adipokine Panel • Groups 1+3: On three occasions (study days 57, 66 and 108) blood was collected from the tail vein using EDTA coated hematocrite tubes (100 μl). Following centrifugation of blood the plasma was collected and stored at −20° C. until measurement. Then, the following panel of adipokines/cytokines was determined using Luminex based 7-plex: leptin, resistin, MCP-1, PAI-1, TNF, insulin and interleukin-6 (IL-6). • iv) Termination • Groups 1+3 (day 111): The following organs were excised and weighed:\ninguinal subcutaneous fat, epididymal fat, retroperitoneal fat, brain, liver, kidney, spleen and heart. All organs described above were samples in 4% PFA for possible future histo-pathological examination. Also, pancreas (en bloc) was sampled for possible stereological and imunohistochemical analysis, and eyes were sampled for possible later analysis of retinopathy. Group 2 (day 28): No tissues or plasma were collected."}, "[1]": {"experiment": "Stability of XG-102 stock solution and diluted formulations", "type": "physicochemical", "excerpt": "as §1, with “The stability of the stock solution is 3 months at approximately −80° C.; the stability of the diluted formulations for animal dosing is 24 hours at room temperature. Unused diluted material could be stored for up to 7 days if kept at 4-8° C.” left out"}}, "note": "Ends that are not written are not given here."}
{"substance": "dqsrpvqpflnIttprkprpprrrqrrkkrg (DQSRPVQPFLNLTTPRKPRPPRRRQRRKKRG; not fully specified (some residues); printed as dqsrpvqpflnIttprkprpprrrqrrkkrg) [XG-102]", "values": [{"measurement": "accumulation in liver", "setting": "liver, Kupffer cells", "result": "pronounced accumulation of XG-102 in the liver, and especially, in the Kupffer cells"}, {"measurement": "body weight vs vehicle", "setting": "db/db mice; 1 mg/kg, 28 days of dosing", "result": "no effect"}, {"measurement": "fasting blood glucose vs vehicle", "setting": "db/db mice; 1 mg/kg, 28 days of dosing", "result": "no effect"}, {"measurement": "dosing time until blood glucose effect evident", "setting": "db/db mice; 10 mg/kg", "result": 14, "unit": "days"}, {"measurement": "fasting blood glucose plateau", "setting": "db/db mice; 10 mg/kg", "result": "approximately 5 mmol/L"}, {"measurement": "fasting blood glucose vs vehicle", "setting": "db/db mice; 10 mg/kg s.c. daily for 21 days, wash-out to day 111", "result": "clear and significant (p<0.001) decrease"}, {"measurement": "tissue weight of brain, spleen and heart", "setting": "db/db mice; 10 mg/kg, day 111", "result": "no significant effects"}, {"measurement": "tissue weight of fat pads at termination", "setting": "db/db mice; 10 mg/kg, day 111", "result": "a significant decrease of epididymal (p<0.05) and retroperitoneal (p<0.01) fat mass"}, {"measurement": "tissue weight of kidney and liver", "setting": "db/db mice; 10 mg/kg, day 111", "result": "a significant decrease of kidney (p<0.05) and liver (p<0.01) mass"}, {"measurement": "body weight vs vehicle", "setting": "db/db mice; 10 mg/kg, from day 28 to day 111", "result": "clear and significant (p<0.001) prevention of body weight increase"}, {"measurement": "general observations: sedation", "setting": "db/db mice; acute dosing period", "result": "no signs of sedation"}, {"measurement": "reaction of subcutaneous tissue at injection site", "setting": "db/db mice; group B (1 mg/kg s.c. daily)", "result": "mild nodular fibrosis was observed"}, {"measurement": "reaction of subcutaneous tissue at injection site", "setting": "db/db mice; high dose (10 mg/kg s.c. daily), after approximately two weeks", "result": "nodular fibrosis was observed in the subcutaneous tissue"}, {"measurement": "stability of the stock solution", "setting": "[1]; 1 mM in vehicle, approximately −80° C.", "result": 3, "unit": "months"}, {"measurement": "storage of unused diluted material", "setting": "[1]; 4-8° C.", "result": "up to 7 days"}, {"measurement": "stability of the diluted formulations for animal dosing", "setting": "[1]; room temperature", "result": 24, "unit": "h"}]}
